Laboratory results published in patent US20180049996A1, “THERAPEUTIC AGENT FOR CHRONIC RESPIRATORY DISEASE AND COMPOSITION FOR INHIBITING CARDIAC FIBROSIS” (NIPPON HYPOX LABORATORIES INCORPORATED, priority 2015, published 2018).

What was measured:
[1] = test system: sputum excretion; assay: Sputum excretion action (phenol red excretion from trachea sections, method of Engler et al.); assay type: in vivo, male ICR mice; conditions: relative to negative control
Description: The hydroquinone derivative of the present invention was orally administered to 8 week old male ICR mice in a single dose, and the sputum excretion action was evaluated according to the method of Engler et al. (Engler H, Szelenyi I, J.Pharmacol. Moth. 11, 151-157, 1984).
Specifically, the test was conducted as follows. The test material was orally administered to the mice in the control group and the test groups, i.e., an aqueous solution of 2% gum arabic was administered to the mice in the negative control group, and 2,3,5-trimethylhydroquinone-1-hexyl ether (HTHQ), the test substance, was orally administered to the mice in the HTHQ-administered groups at 100 mg/kg body weight, 200 mg/kg body weight and 400 mg/kg body weight, respectively. Ambroxol (a product from Sigma-Aldrich) was orally administered to the mice in the ambroxol administered group at 250 mg/kg body weight. Here, ambroxol is a substance having expectoration action and has been selected as a positive control substance. 30 minutes after the oral administration of the test material, saline in which phenol red (a product from Sigma-Aldrich) was dissolved at a concentration of 0.05 g/mL was intraperitoneally administered at 15 mL/kg. Then, 30 minutes after the administration of phenol red, the mice were euthanized by inhalation of carbon dioxide, and the tracheae were extirpated. Given sites of the extirpated tracheae were cut into sections of fixed size to obtain trachea sections. The obtained trachea sections were added to centrifugation tubes, and 1 mL of saline was added there, and the mixture was sonicated using a ultrasonic washing machine for 15 minutes. After the centrifugation of 5 minutes at 10000 rpm, 0.5 mL of a upper layer solution was dispensed to the centrifugation tubes and 0.05 mL of 1 N sodium hydroxide was added to the tubes. After stirring with a vortex mixer, 0.2 mL of a sample was dispensed to a 96 well plate, and absorbance was measured at 546 nm using a micro plate reader (a product from BioTek Instruments, Inc). The amounts of phenol red excreted from the trachea sections of the mice in the control group and test groups were calculated by extrapolating the measured absorbance to the standard curve based on the absorbance of phenol red reference standard ([…], 2.3 and 1.2 ng/mL). The amounts of phenol red excreted from the trachea sections were substituted in the following formula to calculate the sputum excretion ability of the test material. The formula to calculate the sputum excretion ability is as follows: “sputum excretion ability(%)={(A/B)−1}×100” wherein A is the amounts of phenol red of the test material administered groups (an average) and B is the amount of phenol red of the negative control group (an average).

[2] = test system: IL-5; assay: IL-5 level in BAL fluid (ELISA), ovalbumin asthma model; assay type: in vivo, BALB/c female mice; conditions: HTHQ 20 and 40 mg/kg/day oral; compared to OVA group
Description: 6 week old BALB/c female mice were purchased and the mice were divided into 5 groups with 5 animals per group shown in Table 3 below after habituation breeding of about 2 weeks.
The test was conducted on the schedule of sensitization, causing diseases and administration of test materials shown in FIG. 12. “IP” in FIG. 12 refers to ovalbumin sensitization treatment by the intraperitoneal administration of ovalbumin/aluminum hydroxide, and “IH” refers to inhalation exposure treatment of ovalbumin, and “PO” refers to the administration of the test materials. […]
All mice were euthanized by intraperitoneal injection of pentobarbital (Hanrimu pharmaceutical, South Korea) at 50 mg/kg and the bronchi were excised on day 25 of the test. […] After preparing slide samples from 100 μL of BAL cell fluid using Cytospin (4° C., 1000 rpm×5 min), the cell numbers of inflammatory cells (eosinophils, macrophages, lymphocytes and neutrophils) present in the BAL fluid were counted using a Diff-Quik stain kit.
The supernatant of the BAL fluid stored was taken out of the super-cryostat and IL-4, IL-5 and IL-13 levels were measured as the pro-inflammatory cytokine contents in the supernatant of the BAL fluid. A quantitative ELISA kit (a product from R&D systems) and a microplate reader (a product from Bio-Rad Laboratories, Inc.) were used for the measurement and the measurement wavelength was 450 nm.

CCCCCCOc1cc(C)c(O)c(C)c1C [HTHQ, 2,3,5-trimethylhydroquinone-1-hexyl ether]
sputum excretion ability ([1]; HTHQ 100 mg/kg oral single dose): 24.6% | sputum excretion ability ([1]; HTHQ 200 mg/kg oral single dose, significant increase): 30.0% | sputum excretion ability ([1]; HTHQ 400 mg/kg oral single dose, significant increase): 36.2% | IL-5 content in BAL fluid [2]: significantly reduced
